This note sets out measurements from patent US20230026259A1, “CA2 COMPOSITIONS AND METHODS FOR TUNABLE REGULATION” (Obsidian Therapeutics, Inc., priority 2019, published 2023).

In this test the test system is Activated T cells from human donor. In words: Cell surface CAR expression of CA2 regulated CAR constructs (CD19-Fc staining). In kind it is cell-based. The method, then: CA2 DD described herein were operably linked to CARs to generate tunable CAR constructs. Activated T cells from human donor were transduced with 10 μL of lentivirus for indicated constructs. […] Cell surface CAR expression was detected the following day by staining the cells with 10 ug/mL CD19-Fc followed by an anti-human-BV421 conjugated secondary antibody. Histograms were plotted from a live cell gate. Similar experiments were also performed at day 8 and the cells were harvested at day 9. The data are shown in Table 20 as percentage CAR positive cells. The stabilization ratio was also calculated and is included in Table 20 as SR.
Activated T cells from human donor were transduced with 10 μL of lentivirus for indicated constructs. […] Cell surface CAR expression was detected the following day by staining the cells with 10 ug/mL CD19-Fc followed by an anti-human-BV421 conjugated secondary antibody. The percent of ligand induced CAR+ cells are plotted from a live cell gate relative to vehicle treated negative control cells.

Take `Cc1onc(-c2ccccc2)c1-c1ccc(S(N)(=O)=O)cc1` [Valdecoxib]: under “T cells day 8, Valdecoxib starting at 10 μM diluting 3-fold, overnight”, the “regulation of CAR expression by titrations of Valdecoxib” value is given as “Little to no ligand dependent regulation of CAR”. Besides, the “CAR regulation compared between ligands” value (T cells, 10 μM ligand overnight, day 7 and 9) is given as “regulation was more evident at day 7”.
